Article PMC8559926, “Design, synthesis and biological evaluation of N-oxide derivatives with potent in vivo antileishmanial activity” (PLoS ONE, 2021)
Where two headings read alike, the source gives them in different places.

Assays:
[1] = Anti-amastigote activity in infected murine peritoneal macrophages; format: cell-based, L. infantum; settings: Swiss, mouse; CC50 macrophages / EC50 L. infantum amastigotes; read-out: SI - Selective Index (CC50/EC50)
Experimental: (§1) The antileishmanial activity against L. infantum intracellular amastigotes, according to the following methodology. […] Were used infected macrophages as negative control and amphotericin B as the positive control.
(§2) After incubation, cells were fixed with methanol and Giemsa stained. The effective concentration to 50% amastigotes death (EC) was obtained by counting 100 macrophages in duplicate, in two independent experiments. The values were obtained by non-linear regression on Bioestat® software, and results were expressed in mean ± standard deviation.

[2] = system: L. infantum intracellular amastigotes; assay: as above; format: cell-based; settings: Leishmania infantum, Peritoneal macrophage, read-out: EC50 - Effective Concentration that kills 50% of L. infantum amastigote forms
Experimental: as §1, §2

[3] = Quantification of nitrite by the Griess reaction (NO release); settings: compounds at 10^-4 M, 5 mM of L-Cys (1:50), 1 h, 37°C
Experimental: The levels of nitrite resulting from the oxidation of NO in the aqueous medium were quantified through the Griess reaction after incubation with an excess of L-cysteine (1:50) according to previously published methods. The experiments were performed in triplicate and repeated three times on different days. […] The results were expressed as a percentage of nitrite (% NO2^−; mol/mol). Statistical analysis was carried out using ANOVA followed by Tukey’s Multiple Comparison Test at a significance level of p < 0.05.
The ability of all synthesized compounds (4a-x) and (14a-g) to release NO was evaluated by indirect determination of NO2^− production. The compounds at 10^−4 M were incubated for 1 h at 37°C in the presence of L-cysteine (1:50) and the produced NO2^− was determined through Griess reaction (Table 1).

[4] = target: T1, recombinant Leishmania cysteine protease LmCPB2.8ΔCTE (CPB) (Leishmania mexicana, UniProt P36400); assay: Enzymatic inhibition of recombinant CPB (Z-FR-AMC substrate); format: biochemical
T1 construct: The ORF that codes for the Leishmania mexicana CPB, lacking the C terminal extension (CPB2.8ΔCTE); made in house; host or cells: Pichia pastoris X-33
Experimental: The concentration of the active recombinant CPB expressed in Pichia pastoris supernatant was determined by active site titration with N-(trans-Epoxysuccinyl)-L-leucine 4-guanidinobutylamide E-64 (CalBiochem) that was found 1 μM. The active enzyme represented about 80% of the total recombinant enzyme.
Compounds were dissolved in DMSO to a final concentration of 20 μM. The assays were performed in dark 96 well-plates, containing 200 μL of 100 mM sodium acetate buffer (pH 5.5), 200 mM NaCl, 0.01% Triton-X100, 2 nM enzyme, various concentrations of inhibitor, and 5 μM of the substrate Z-FR-AMC (Calbiochem). The final concentration of DMSO was 1% (v/v). The enzyme was pre-incubated at 30°C for 2 minutes before the inhibitor was added, waited 2 minutes and after this incubation, the reaction was started by the addition of the substrate, Z-FR-AMC. The fluorescence was monitored at 380 nm excitation and 460 nm emission filters for 2 minutes at 30°C in an Infinite 200 PRO microplate reader (Tecan, Männedorf, Switzerland). The residual activity was measured by the ratio between enzyme + substrate and enzyme + inhibitor + substrate. […] Results were expressed in mean ± standard deviation of two independent replicates using Bioestat Software.

T1 sequence (P36400 126-341, stated change not applied): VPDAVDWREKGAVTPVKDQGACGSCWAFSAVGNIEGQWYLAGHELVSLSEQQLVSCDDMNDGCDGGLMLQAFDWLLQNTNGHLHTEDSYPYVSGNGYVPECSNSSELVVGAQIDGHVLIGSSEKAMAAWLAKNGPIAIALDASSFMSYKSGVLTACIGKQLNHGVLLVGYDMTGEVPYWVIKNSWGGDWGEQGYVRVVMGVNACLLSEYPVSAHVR

SMILES	selectivity ratio at 24 h [1]	EC50 ([2]; 24 h treatment, intracellular amastigotes) [µM]	% NO2- (mol/mol) [3] [%]	EC50 ([2]; 24 h) [µM]	IC50 [4] [µM]	melting point [°C]
C[C@@H]1[C@H](O)[C@@H](C)/C=C/C=C/C=C/C=C/C=C/C=C/C=C/[C@H](O[C@@H]2O[C@H](C)[C@@H](O)[C@H](N)[C@@H]2O)C[C@@H]2O[C@](O)(C[C@@H](O)C[C@@H](O)[C@H](O)CC[C@@H](O)C[C@@H](O)CC(=O)O[C@H]1C)C[C@H](O)[C@H]2C(=O)O [Amphotericin B, amphotericin B, reference compound]	12	1 ± 0.1	0	–	–	–
O=C(N/N=C/c1ccc(Oc2no[n+]([O-])c2-c2ccccc2)cc1)c1ccccc1 [Compound 4a, (E)-4-(4-((2-benzoylhydrazono)methyl)phenoxy)-3-phenyl-1,2,5-oxadiazole 2-oxide]	> 357	–	9.0 ± 0.7	1.4 ± 0.1	1.5 ± 0.1	–
O=C(N/N=C/c1ccc(Oc2no[n+]([O-])c2-c2ccccc2)cc1)c1ccc(O)cc1 [Compound 4b, (E)-4-(4-((2-(4-hydroxybenzoyl)hydrazono)methyl)phenoxy)-3-phenyl-1,2,5-oxadiazole 2-oxide]	54	–	8.8 ± 0.6	3.1 ± 0.2	3.2 ± 0.3	–
Nc1ccc(C(=O)N/N=C/c2ccc(Oc3no[n+]([O-])c3-c3ccccc3)cc2)cc1 [Compound 4c, (E)-4-(4-((2-(4-aminobenzoyl)hydrazono)methyl)phenoxy)-3-phenyl-1,2,5-oxadiazole 2-oxide]	17	–	9.3 ± 0.8	7.2 ± 0.2	2 ± 0.1	–
O=C(N/N=C/c1ccc(Oc2no[n+]([O-])c2-c2ccccc2)cc1)c1ccc([N+](=O)[O-])cc1 [Compound 4d, (E)-4-(4-((2-(4-nitrobenzoyl)hydrazono)methyl)phenoxy)-3-phenyl-1,2,5-oxadiazole 2-oxide]	> 128	–	8.6 ± 0.8	3.9 ± 0.4	1.8 ± 0.1	–
CC(C)(C)c1ccc(C(=O)N/N=C/c2ccc(Oc3no[n+]([O-])c3-c3ccccc3)cc2)cc1 [Compound 4e, (E)-4-(4-((2-(4-(tert-butyl)benzoyl)hydrazono)methyl)phenoxy)-3-phenyl-1,2,5-oxadiazole 2-oxide]	> 833	–	8.8 ± 0.7	0.6 ± 0.1	0.8 ± 0.1	–
NC(=S)N/N=C/c1ccc(Oc2no[n+]([O-])c2-c2ccccc2)cc1 [Compound 4g, (E)-4-(4-((2-carbamothioylhydrazono)methyl)phenoxy)-3-phenyl-1,2,5-oxadiazole 2-oxide]	> 227	–	9.0 ± 0.6	2.2 ± 0.3	6.5 ± 1	–
NC(=O)c1c(COc2ccc(/C=N/NC(=O)c3ccccc3)cc2)no[n+]1[O-] [Compound 4h, (E)-4-((4-((2-benzoylhydrazono)methyl)phenoxy)methyl)-3-carbamoyl-1,2,5-oxadiazole 2-oxide]	> 161	–	12.1 ± 1.2	3.1 ± 0.2	8.8 ± 0.2	–
NC(=O)c1c(COc2ccc(/C=N/NC(=O)c3ccc(O)cc3)cc2)no[n+]1[O-] [Compound 4i, (E)-3-carbamoyl-4-((4-((2-(4-hydroxybenzoyl)hydrazono)methyl)phenoxy)methyl)-1,2,5-oxadiazole 2-oxide]	–	–	12.3 ± 0.9	> 10	5.7 ± 0.4	201 to 203
NC(=O)c1c(COc2ccc(/C=N/NC(=O)c3ccc(N)cc3)cc2)no[n+]1[O-] [Compound 4j, (E)-4-((4-((2-(4-aminobenzoyl)hydrazono)methyl)phenoxy)methyl)-3-carbamoyl-1,2,5-oxadiazole 2-oxide]	–	–	12.7 ± 0.8	> 10	11.1 ± 0.1	209 to 214
NC(=O)c1c(COc2ccc(/C=N/NC(=O)c3ccc([N+](=O)[O-])cc3)cc2)no[n+]1[O-] [Compound 4l, (E)-3-carbamoyl-4-((4-((2-(4-nitrobenzoyl)hydrazono)methyl)phenoxy)methyl)-1,2,5-oxadiazole 2-oxide]	–	–	11.8 ± 1.1	7.7 ± 2.1	10.8 ± 2.3	–
CC(C)(C)c1ccc(C(=O)N/N=C/c2ccc(OCc3no[n+]([O-])c3C(N)=O)cc2)cc1 [Compound 4m, (E)-4-((4-((2-(4-(tert-butyl)benzoyl)hydrazono)methyl)phenoxy)methyl)-3-carbamoyl-1,2,5-oxadiazole 2-oxide]	> 78	–	12.5 ± 1.3	6.4 ± 1.1	6 ± 0.7	–
NC(=O)N/N=C/c1ccc(OCc2no[n+]([O-])c2C(N)=O)cc1 [Compound 4n, (E)-3-carbamoyl-4-((4-((2-carbamoylhydrazono)methyl)phenoxy)methyl)-1,2,5-oxadiazole 2-oxide]	–	–	12.0 ± 1.4	> 10	13.7 ± 1.8	228 to 230
O=C(N/N=C/c1ccc2no[n+]([O-])c2c1)c1ccccc1 [Compound 4p]	–	–	–	> 10	> 20	–
